From patent publication US10168342B2, “Lipid probes and uses thereof” (THE SCRIPPS RESEARCH INSTITUTE, priority 2015, dated 2019)

How the values were obtained:
[1] = system: PGF2α-EA formation in PMA-stimulated A549 cells; test: Oxidative metabolism of AEA in A549 cells (prostamide formation); assay type: cell-based, human; settings: MJN228, KML110 5 and 25 μM, others 25 μM, AEA 20 μM
Experimental: The media from the PMA-stimulated cells was removed and cells were washed with DPBS (2×3 mL) before adding freshly prepared media solutions containing vehicle or compound (2 mL/plate). After incubating for 30 min at 37° C., a solution of BHT-stabilized AEA (60 μM AEA; 60 μM BHT) in the same media was added to the cells (1.0 mL/plate) and incubated for 1 h. The media from the cells was then transferred to glass vials containing MS internal standards [PGE2-EA-d4 (25 pmol)], centrifuged (1,500×g, 5 min) to remove detached cells and then loaded onto pre-equilibrated reversed phase SPE cartridges (Phenomenex, Strata-X 33 μm, 60 mg/3 mL). After washing cartridges with 5% MeOH/H2O (3 mL), prostamides were eluted with MeOH (1.0 mL) and the eluent was concentrated under a stream of N2. Concentrated samples were stored at −80° C. until the day of analysis when they were reconstituted in Mobile Phase A [100 μL, 30% CH3CN in H2O (0.1% AcOH, 5.0 mM NH4OAc)].
Media extracts were analyzed by LC/MS/MS with LC separation performed on a Kinetex reversed phase C18 column (50×4.6 mm, 2.6 μm particle size, 100Å). Mobile phase A was composed of 30% (v/v) CH3CN in H2O and Mobile phase B was composed of 50% (v/v) CH3CN in i-PrOH. Both mobile phases also contained 0.1% AcOH and NH4OAc (5 mM) to facilitate ionization and LC separation. […]
MS analysis of prostamides was performed on an Agilent 6460 Triple Quadrupole LC/MS System with operating conditions as follows: gas temperature (300° C.); gas flow (9 L·min^−1); nebulizer (45 psi); sheath gas temperature (300° C.); sheath gas flow (12 L·min^−1); positive and negative capillary voltage (3.5 kV). Analysis was achieved using multiple reaction monitoring with precursor to product ion transitions, optimized collision energies (CE) as listed below and prostamide quantification was achieved by normalized of analyte peaks relative to a deuterated prostamide internal standard (PGE2-EA-d4) to account for differences in extraction efficiency. […]

[2] = molecular target: T1, endogenous FAAH in Neuro2a lysates (Mus musculus, UniProt O08914); test: FAAH activity by AEA hydrolysis in Neuro2a lysates; assay type: biochemical; settings: for IC50: read-out: IC50 against endogenous FAAH in Neuro2a lysates; for inhibition of FAAH activity in Neuro2a lysates: up to 250 μM
T1 construct: endogenous in cells; host or cells: Neuro2a membrane fraction
T1 sequence (O08914 1-579): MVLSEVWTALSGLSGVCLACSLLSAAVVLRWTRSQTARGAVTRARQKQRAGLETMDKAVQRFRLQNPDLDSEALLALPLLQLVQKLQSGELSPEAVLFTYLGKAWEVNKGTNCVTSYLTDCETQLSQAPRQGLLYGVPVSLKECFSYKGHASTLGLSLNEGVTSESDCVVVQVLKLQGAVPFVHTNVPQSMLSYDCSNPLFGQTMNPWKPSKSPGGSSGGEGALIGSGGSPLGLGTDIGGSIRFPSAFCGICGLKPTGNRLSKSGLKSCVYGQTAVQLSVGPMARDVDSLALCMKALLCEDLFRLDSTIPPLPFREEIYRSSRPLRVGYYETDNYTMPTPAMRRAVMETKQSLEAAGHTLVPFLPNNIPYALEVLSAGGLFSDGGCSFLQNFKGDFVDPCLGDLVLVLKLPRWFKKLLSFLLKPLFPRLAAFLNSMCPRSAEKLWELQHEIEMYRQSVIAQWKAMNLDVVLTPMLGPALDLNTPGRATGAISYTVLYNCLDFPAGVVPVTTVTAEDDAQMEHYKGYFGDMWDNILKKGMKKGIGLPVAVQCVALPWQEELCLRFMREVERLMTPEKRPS
Experimental: FAAH activity was measured by AEA hydrolysis: The membrane fraction of Neuro2a lysates (200 μL, 2.0 mg/mL) was incubated with DMSO or the test compound (1.0-250 μM) at 37° C. After 15 min, AEA-d8 (25 μM) was added and the samples were incubated for an additional 30 min and then quenched by the addition of two volumes of CHCl3:MeOH (2:1) containing pentadecanoic acid (PDA) (1.0 nmol) as an internal standard. After centrifuging (2,000×g, 5 min, 4° C.) to separate the organic and aqueous layers, the lower organic layer was transferred to a clean vial and analyzed by LC/MS as previously described. (Long et al., 2009) Pure humanized rat FAAH (Mileni et al., 2008) (5.0 ng/μL) was assayed in the same manner. Product levels were quantified by determining peak areas in relation to PDA.

Structure (SMILES) | conversion of exogenous AEA to PGF2α-EA [1] | IC50 [2] [µM] | inhibition of FAAH activity in Neuro2a lysates [2]
CN1CCN(C(=O)c2c(-c3ccccc3)c3cc([N+](=O)[O-])ccc3n2C)CC1 [KML110, (1-Methyl-5-nitro-3-phenyl-1H-indol-2-yl)(4-methylpiperazin-1-yl)methanone] | suppress | > 100 | minimal inhibition
CN1CCN(C(=O)c2[nH]c3ccc([N+](=O)[O-])cc3c2-c2ccccc2)CC1 [MJN228, (4-Methylpiperazin-1-yl)(5-nitro-3-phenyl-1H-indol-2-yl)methanone] | suppress | > 100 | minimal inhibition
